Article PMC7407945, “Ranacyclin-NF, a Novel Bowman–Birk Type Protease Inhibitor from the Skin Secretion of the East Asian Frog, Pelophylax nigromaculatus” (Biology, 2020)
Converted amounts (≈) assume the structure as drawn. Read-outs that look alike come from different tables or passages of the source. Each block holds one molecule with its values, some of them ahead of it. Bridge positions count the residues as written; N and C are the ends. Ends that are not written are not given here. Peptide text beside a SMILES is read from it.

Tests used:
[1] = target: T1, trypsin (Bos taurus, UniProt P00760); conditions: cited from earlier work
T1 construct: gene PRSS1
T1 sequence (P00760 24-246): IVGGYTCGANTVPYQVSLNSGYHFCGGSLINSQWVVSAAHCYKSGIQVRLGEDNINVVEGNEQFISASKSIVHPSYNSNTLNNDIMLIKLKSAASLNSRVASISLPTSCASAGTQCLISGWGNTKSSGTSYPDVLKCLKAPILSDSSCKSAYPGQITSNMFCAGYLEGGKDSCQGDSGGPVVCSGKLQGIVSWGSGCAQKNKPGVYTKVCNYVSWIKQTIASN
Text: Amino acid residues at P5′ are shaded. | column: Trypsin Inhibition Ki (nM) || In previous studies, extensive studies have been made to reveal the role played by each residue within the TIL in overall enzyme inhibitory activity. However, factors outside this conserved disulphide loop, which may affect trypsin inhibition activity, have rarely been studied. In 2012, Wang et al. discovered the peptide, HJTI, and designed one molecular variant to study the role that cationicity played in trypsin inhibitory potency. They believed that structural features, especially for amino acid residues lying outside the TIL, were crucial in modulating the effectiveness of trypsin inhibito ...

[2] = tested on: MRSA; assay: Checkerboard assay, peptide with Gentamicin; format: cell-based, Staphylococcus aureus; conditions: for MIC: Staphylococcus aureus, 18 h
Description: Then, the microorganism cultures (1 × 10^6 cfu/mL) were inoculated into the plate wells and incubated at 37 °C for 18 h. The optical densities of the cultures were measured using an ELISA plate reader (Biotech Minneapolis, MN, USA). The lowest cumulative fractional inhibitory concentration (ΣFIC) was calculated with the following equation:(1) ΣFIC=Compound A treated in combination/Compound A, test in alone+Compound B treated in combination/Compound B, test in alone
ΣFIC ≤ 0.5 indicates synergy; 0.5 < Σ FIC ≤ 4 indicates an additive effect; and Σ FIC > 4 represents an antagonistic effect.

[3] = target: T2, chymotrypsin (Bos taurus, UniProt P00766); assay: Chymotrypsin inhibition assay; format: biochemical; design: key: N.I.: there was no inhibitory activity; conditions: substrate Succinyl-Ala-Ala-Pro-Phe-NHMec
Description: (§1) Trypsin and chymotrypsin inhibition assays were performed as previously described. The substrate of trypsin and chymotrypsin were Phe-Pro-Arg-AMC and Succinyl-Ala-Ala-Pro-Phe-NHMec, respectively, and obtained from Bachem, Merseyside, UK. In the tryptase inhibition assay, peptide samples were first dissolved in tryptase assay buffer pH 7.6, containing 0.05 M Tris, 0.15 M NaCl and 0.2% (w/v) PEG 6000 (final volume 210 μL) to obtain different concentrations of 0.5, 1, 2 and 4 mM and then added to the wells of a black 96-well plate containing (Boc-Phe-Ser-Arg-NHMec, obtained from Bachem, Merseyside, UK) (50 μM). Before measurement, tryptase (2.5 μL from 1 mg/mL stock solution, Calbiochem, Nottingham, UK) was added to each well. The rate of hydrolysis of substrate was monitored continuously at 37 °C and 460 nm with a Fluostar Optima plate reader (BMG Labtech GmbH, Offenburg, Germany)

[4] = target: T2, chymotrypsin; design: method as in 2 sources, ref 24 = [24]; PMID 28356487; doi:10.1042/BSR20160593; 24. Wu Y. Long Q. Xu Y. Guo S. Chen T. Wang L. Zhou M. Zhang Y. Shaw C. Walker B. A structural and functional analogue of a Bowman–Birk-type protease inhibitor from Odorrana schmackeri Biosci. Rep. 20 ||| ref 32 = [32]; PMID 31337113; doi:10.3390/biom9070280; 32. Miao Y. Chen G. Xi X. Ma C. Wang L. Burrows J. Duan J. Zhou M. Chen T. Discovery and Rational Design of a Novel Bowman-Birk Related Protease Inhibitor Biomolecules 2019 9 280 10.3390/biom9070280 3; key: N.I.: there was no inhibitory activity; conditions: cited from earlier work
[5] = target: T3, tryptase (Homo sapiens, UniProt Q15661); conditions: cited from earlier work; for tryptase inhibitory activity: result in words
T3 construct: purchased Calbiochem, Nottingham, UK
Text: Therefore, the emergence of a novel tryptase inhibitor would be an asset in the treatment of some clinical diseases. […] Some publications believe that protease inhibitors cannot work effectively when it comes t ...

[6] = tested on: bacteria; conditions: result in words; cited from earlier work
Text: (§2) Therefore, ranacyclins firstly approach to the membrane surface through hydrophobic interaction and then, at sites where peptide concentrations reach a threshold, insert into the hydrophobic core of the membrane bilaye ...

[7] = result in words; cited from earlier work
Text: as §2

[8] = tested on: Staphylococcus aureus (NCTC 10788); conditions: doubling-dilution method, up to 512 µM
[9] = target: T1, trypsin; assay: Trypsin inhibition assay; format: biochemical; conditions: substrate Phe-Pro-Arg-AMC
Description: as §1

[10] = tested on: Methicillin-resistant Staphylococcus aureus (MRSA) (NCTC 12493); conditions: doubling-dilution method, up to 512 µM
[11] = tested on: Pseudomonas aeruginosa (ATTC 27853); conditions: doubling-dilution method, up to 512 µM
[12] = tested on: Candida albicans (NCPF 1467); conditions: doubling-dilution method, up to 512 µM
[13] = tested on: Escherichia coli (NCTC 10418); conditions: doubling-dilution method, up to 512 µM
[14] = tested on: Klebsiella pneumoniae (ATCC43816); conditions: doubling-dilution method, up to 512 µM
[15] = tested on: Enterococcus faecalis (NCTC 12697); conditions: doubling-dilution method, up to 512 µM
[16] = target: T3, tryptase; assay: Tryptase inhibition assay; format: biochemical; conditions: substrate Boc-Phe-Ser-Arg-NHMec 50 μM; pH 7.6, 0.05 M Tris, 0.15 M NaCl, 0.2% PEG 6000; 37 °C; 460 nm
Description: as §1

[17] = tested on: human normal cell lines; conditions: MTT, 24 h, highest concentration tested 100 µM; result in words
Description: (§3) Cells (5 × 10^3 cells/mL) were seeded into 96-well plates with FBS-containing fresh medium for 24 h. After that, cells were treated with corresponding serum-free culture medium for 12 h. […] After exposure for 6 h, all liquid was removed and 100 µL of DMSO was added. Finally, the absorbance of samples at 570 nm was determined using an ELISA plate reader (Biotech, Minneapolis, MN, USA).

[18] = tested on: HMEC-1 cells (human microvascular endothelial cell line); conditions: MTT, 24 h, 10^−9 to 10^−4 M; result in words
Description: as §3

[19] = tested on: HaCaT cells (human keratinocyte cell line); conditions: MTT, 24 h, 10^−9 to 10^−4 M; result in words
Description: as §3

T3 sequence (Q15661 31-275): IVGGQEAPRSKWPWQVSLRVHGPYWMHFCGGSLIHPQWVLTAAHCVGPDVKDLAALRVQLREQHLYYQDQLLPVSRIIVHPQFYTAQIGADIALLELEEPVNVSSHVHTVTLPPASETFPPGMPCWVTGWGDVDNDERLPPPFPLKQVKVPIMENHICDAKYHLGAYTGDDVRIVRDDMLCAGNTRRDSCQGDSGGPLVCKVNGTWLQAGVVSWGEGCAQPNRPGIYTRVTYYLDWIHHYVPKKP

Molecule: GAPKGCWTKSYPPQPCS-NH2 (disulfide) (disulfide 6-16; N-terminus assumed; SMILES C[C@H](NC(=O)CN)C(=O)N1CCC[C@H]1C(=O)N[C@@H](CCCCN)C(=O)NCC(=O)N[C@H]1CSSC[C@@H](C(=O)N[C@@H](CO)C(N)=O)NC(=O)[C@@H]2CCCN2C(=O)[C@H](CCC(N)=O)NC(=O)[C@@H]2CCCN2C(=O)[C@@H]2CCCN2C(=O)[C@H](Cc2ccc(O)cc2)NC(=O)[C@H](CO)NC(=O)[C@H](CCCCN)NC(=O)[C@H]([C@@H](C)O)NC(=O)[C@H](Cc2c[nH]c3ccccc23)NC1=O) [HJTI, Odorrana hejiangensis]
Ki [1]: 0.388 µM

MIC ([2]; read-out: MIC of Gentamicin against MRSA, Gentamicin alone, 37 °C, 18 h): 2 µM
MIC ([2]; read-out: MIC of Gentamicin against MRSA, in the presence of RNF and its analogues, 37 °C, 18 h): 1 µM
Molecule: CNC(C)C1CCC(N)C(OC2C(N)CC(N)C(OC3OCC(C)(O)C(NC)C3O)C2O)O1 (stereo not drawn) [Gentamicin]

Molecule: CC(C)C[C@H](NC(=O)[C@H](C)NC(=O)CN)C(=O)N[C@@H](CCCNC(=N)N)C(=O)NCC(=O)N[C@H]1CSSC[C@@H](C(=O)N[C@@H](Cc2ccccc2)C(N)=O)NC(=O)[C@@H]2CCCN2C(=O)[C@H](CCC(N)=O)NC(=O)[C@@H]2CCCN2C(=O)[C@@H]2CCCN2C(=O)[C@H](Cc2ccc(O)cc2)NC(=O)[C@H](CO)NC(=O)[C@H](CCCCN)NC(=O)[C@H]([C@@H](C)O)NC(=O)[C@H](Cc2c[nH]c3ccccc23)NC1=O [RNF3L] (H-GALRGCWTKSYPPQPCF-NH2; disulfide 6-16; N-terminus assumed)
effect of the combination with Gentamicin ([2]; peptide with Gentamicin, class by ΣFIC): additive effect (0.5 < Σ FIC ≤ 4 indicates an additive effect)
Ki(µM) of Chymotrypsin [3]: N.I.

Molecule: AALKGCWTKSIPPKPCF-NH2 (disulfide 6-16 (inferred)) [OSTI]
Ki(µM) of Chymotrypsin [4]: N.I.
tryptase inhibitory activity [5]: obvious tryptase inhibitory activity

Molecule: AALKGCWTKSIPPKPCF-NH2 (disulfide) (disulfide 6-16; N-terminus assumed; SMILES CC[C@H](C)[C@@H]1NC(=O)[C@H](CO)NC(=O)[C@H](CCCCN)NC(=O)[C@H]([C@@H](C)O)NC(=O)[C@H](Cc2c[nH]c3ccccc23)NC(=O)[C@@H](NC(=O)CNC(=O)[C@H](CCCCN)NC(=O)[C@H](CC(C)C)NC(=O)[C@H](C)NC(=O)[C@H](C)N)CSSC[C@@H](C(=O)N[C@@H](Cc2ccccc2)C(N)=O)NC(=O)[C@@H]2CCCN2C(=O)[C@H](CCCCN)NC(=O)[C@@H]2CCCN2C(=O)[C@@H]2CCCN2C1=O) [OSTI]
Ki [1]: 0.0003 µM
Ki [5]: 2.5 µM

Molecule: GALRGCWTKSYPPKPCK-NH2 (disulfide 6-16 (inferred)) [Ranacyclin-T]
antimicrobial activity with respect to RNF [6]: relatively stronger antimicrobial activity
secondary structure [7]: beta-sheet structure

Molecule: C[C@H](NC(=O)CN)C(=O)N1CCC[C@H]1C(=O)N[C@@H](CCCNC(=N)N)C(=O)NCC(=O)N[C@H]1CSSC[C@@H](C(=O)N[C@@H](Cc2ccccc2)C(=O)O)NC(=O)[C@@H]2CCCN2C(=O)[C@H](CCC(N)=O)NC(=O)[C@@H]2CCCN2C(=O)[C@@H]2CCCN2C(=O)[C@H](Cc2ccc(O)cc2)NC(=O)[C@H](CO)NC(=O)[C@H](CCCCN)NC(=O)[C@H]([C@@H](C)O)NC(=O)[C@H](Cc2c[nH]c3ccccc23)NC1=O [RNF1] (H-GAPRGCWTKSYPPQPCF-OH; disulfide 6-16)
MBC S. aureus [8]: > 512 µM
MIC S. aureus [8]: > 512 µM
Ki [9]: 1.3 µM
MBC MRSA [10]: > 512 µM
MIC MRSA [10]: > 512 µM
MBC P. aeruginosa [11]: > 512 µM
MIC P. aeruginosa [11]: > 512 µM
MBC C. albicans [12]: > 512 µM
MIC C. albicans [12]: > 512 µM
MBC E. coli [13]: > 512 µM
MIC E. coli [13]: > 512 µM
MBC K. pneumoniae [14]: > 512 µM
MIC K. pneumoniae [14]: > 512 µM
MBC E. faecalis [15]: > 512 µM
MIC E. faecalis [15]: > 512 µM
Ki [16]: 9.06 µM

Molecule: ALRGCWTKSIPPKPCP-NH2 (disulfide 5-15 (inferred)) [PPF-BBI]
Ki(µM) of Chymotrypsin [4]: N.I.
tryptase inhibitory activity [5]: obvious tryptase inhibitory activity

Molecule: GALRGCWTKSYPPKPCK-NH2 (disulfide) (disulfide 6-16) [Ranacyclin-T]
Ki [1]: 0.116 µM

Molecule: C[C@H](NC(=O)CN)C(=O)N1CCC[C@H]1C(=O)N[C@@H](CCCNC(=N)N)C(=O)NCC(=O)N[C@H]1CSSC[C@@H](C(=O)N[C@@H](Cc2ccccc2)C(N)=O)NC(=O)[C@@H]2CCCN2C(=O)[C@H](CCC(N)=O)NC(=O)[C@@H]2CCCN2C(=O)[C@@H]2CCCN2C(=O)[C@H](Cc2ccc(O)cc2)NC(=O)[C@H](CO)NC(=O)[C@H](CCCCN)NC(=O)[C@H]([C@@H](C)O)NC(=O)[C@H](Cc2c[nH]c3ccccc23)NC1=O [RNF] (H-GAPRGCWTKSYPPQPCF-NH2; disulfide 6-16)
MBC S. aureus [8]: > 512 µM
MIC S. aureus [8]: 512 µM (≈ 969 µg/mL)
Ki [9]: 0.447 µM
MBC MRSA [10]: > 512 µM
MIC MRSA [10]: > 512 µM
MBC P. aeruginosa [11]: > 512 µM
MIC P. aeruginosa [11]: > 512 µM
cytotoxicity [17]: negligible direct cytotoxicity
cytotoxicity on HMEC-1 [18]: negligible cytotoxicity
cytotoxicity on HaCaT [19]: negligible cytotoxicity
MBC C. albicans [12]: > 512 µM
MIC C. albicans [12]: > 512 µM
MBC E. coli [13]: > 512 µM
MIC E. coli [13]: > 512 µM
MBC K. pneumoniae [14]: > 512 µM
MIC K. pneumoniae [14]: > 512 µM
MBC E. faecalis [15]: > 512 µM
MIC E. faecalis [15]: > 512 µM
Ki [16]: 6.77 µM

Molecule: ALRGCWTKSIPPKPCP-NH2 (disulfide) (disulfide 5-15; N-terminus assumed; SMILES CC[C@H](C)[C@@H]1NC(=O)[C@H](CO)NC(=O)[C@H](CCCCN)NC(=O)[C@H]([C@@H](C)O)NC(=O)[C@H](Cc2c[nH]c3ccccc23)NC(=O)[C@@H](NC(=O)CNC(=O)[C@H](CCCNC(=N)N)NC(=O)[C@H](CC(C)C)NC(=O)[C@H](C)N)CSSC[C@@H](C(=O)N2CCC[C@H]2C(N)=O)NC(=O)[C@@H]2CCCN2C(=O)[C@H](CCCCN)NC(=O)[C@@H]2CCCN2C(=O)[C@@H]2CCCN2C1=O) [PPF-BBI]
Ki [1]: 0.17 µM
Ki [5]: 30.7 µM
